The results in this text go back to ChEMBL document CHEMBL1153084, “Synthesis and HMG-CoA reductase inhibition of 2-cyclopropyl-4-thiophenyl-quinoline mevalonolactones” (Bioorg Med Chem, 2009).

Molecules are shown by their SMILES.

This experiment deals with T1, 3-hydroxy-3-methylglutaryl-coenzyme A reductase (Homo sapiens, UniProt P04035).
T1 sequence (P04035 whole entry): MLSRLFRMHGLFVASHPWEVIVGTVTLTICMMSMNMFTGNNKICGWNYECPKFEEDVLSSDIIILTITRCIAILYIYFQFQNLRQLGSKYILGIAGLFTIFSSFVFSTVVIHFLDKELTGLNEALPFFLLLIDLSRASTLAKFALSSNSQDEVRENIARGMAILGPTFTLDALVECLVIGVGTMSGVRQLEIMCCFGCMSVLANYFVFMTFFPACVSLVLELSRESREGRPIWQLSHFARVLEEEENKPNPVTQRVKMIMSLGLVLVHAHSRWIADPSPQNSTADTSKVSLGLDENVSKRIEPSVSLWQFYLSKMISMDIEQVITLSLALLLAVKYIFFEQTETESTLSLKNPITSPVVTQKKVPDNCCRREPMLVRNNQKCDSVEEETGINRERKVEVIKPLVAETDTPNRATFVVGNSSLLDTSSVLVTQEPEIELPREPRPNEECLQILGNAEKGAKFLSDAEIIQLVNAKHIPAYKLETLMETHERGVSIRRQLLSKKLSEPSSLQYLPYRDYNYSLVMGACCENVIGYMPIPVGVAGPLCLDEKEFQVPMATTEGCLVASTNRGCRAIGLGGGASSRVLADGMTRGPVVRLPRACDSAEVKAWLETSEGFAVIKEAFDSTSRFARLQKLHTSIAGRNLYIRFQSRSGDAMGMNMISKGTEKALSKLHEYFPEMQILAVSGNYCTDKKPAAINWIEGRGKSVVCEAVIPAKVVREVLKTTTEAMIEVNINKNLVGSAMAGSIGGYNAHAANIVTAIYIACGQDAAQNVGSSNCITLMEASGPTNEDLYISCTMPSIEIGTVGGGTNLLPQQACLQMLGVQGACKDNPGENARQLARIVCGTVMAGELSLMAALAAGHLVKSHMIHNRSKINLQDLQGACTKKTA
Kind of experiment: Inhibition of HMG CoA reductase by spectrophotometry.
What is called IC50 is the midpoint of a concentration-inhibition curve. Lower therefore signals inhibition by little substance. Take `O=C1C[C@H](O)C[C@@H](/C=C/c2c(C3CC3)nc3cc(Sc4ccc(F)cc4)c(F)cc3c2Sc2ccc(F)cc2)O1`: the midpoint of inhibition, the IC50, lay at 45.7 µM.

As for `COc1ccc2nc(C3CC3)c(/C=C/[C@@H]3C[C@@H](O)CC(=O)O3)c(Sc3ccc(C(C)C)cc3)c2c1`, inhibition was half-maximal at 41.3 µM (IC50).

Turning to `COc1cccc(Sc2c(/C=C/[C@@H]3C[C@@H](O)CC(=O)O3)c(C3CC3)nc3ccc(F)cc23)c1`, the concentration for half-maximal inhibition (IC50) was determined as 5.61 µM.

`COc1cccc(Sc2c(/C=C/[C@@H]3C[C@@H](O)CC(=O)O3)c(C3CC3)nc3cc(F)c(F)cc23)c1` came in with an IC50 of 360 µM.

`CC(C)c1ccc(Sc2c(/C=C/[C@@H]3C[C@@H](O)CC(=O)O3)c(C3CC3)nc3cc(F)c(F)cc23)cc1` gave an IC50 of 759 µM.

Turning to `O=C1C[C@H](O)C[C@@H](/C=C/c2c(C3CC3)nc3ccccc3c2Sc2ccc(F)cc2)O1`, the midpoint of inhibition, the IC50, lay at 62.4 µM.

In the case of `CC(C)c1ccc(Sc2c(/C=C/[C@@H]3C[C@@H](O)CC(=O)O3)c(C3CC3)nc3ccccc23)cc1`, the IC50 was found to be 11.3 µM.

`COc1ccc2nc(C3CC3)c(/C=C/[C@@H]3C[C@@H](O)CC(=O)O3)c(Sc3ccc(F)cc3)c2c1`: the IC50 is 25.7 µM. Against the preceding compound, the IC50 is about 2.3-fold higher.

`O=C1C[C@H](O)C[C@@H](/C=C/c2c(C3CC3)nc3ccc(F)cc3c2Sc2ccc(F)cc2)O1`: inhibition was half-maximal at 6.93 µM (IC50).

For `COc1cccc(Sc2cc3nc(C4CC4)c(/C=C/[C@@H]4C[C@@H](O)CC(=O)O4)c(Sc4cccc(OC)c4)c3cc2F)c1`, it took 7.1 µM to reach half-maximal inhibition (IC50).

On to `O=C(O)C[C@H](O)C[C@H](O)/C=C/c1c(C2CC2)nc2ccccc2c1-c1ccc(F)cc1` [PITAVASTATIN CALCIUM], for which the concentration for half-maximal inhibition (IC50) worked out at 8.9 µM.
